Data: PubChem BioAssay AID248 (DTP/NCI, 2004)
Values joined by “and” are separate entries in the source; they are usually repeats but may differ in a detail not shown here. Equal entries are not always repeated. Toxic doses and inconclusive results are not listed.

Test system: L1210 leukemia ip in BDF1 mice, survival T/C
Assay: NCI In Vivo Anticancer Drug Screen. Data for tumor model L1210 Leukemia (intraperitoneal) in B6D2F1 (BDF1) mice
Details: endpoint: mean survival time, higher = longer survival
How it was run: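 In this screen, tumor-bearing mice given compound are compared to those given vehicle, and their survival values are reported as a treated-to-control quotient.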

[1] = dose: 50.0 mg/kg/injection, schedule: Q04DX003 (ip), vehicle: saline
[2] = dose: 100.0 mg/kg/injection, schedule: Q04DX003 (ip), vehicle: saline

OCC(O)C(O)C(O)CN=Cc1ccccc1O (stereo not given)
T/C (dose: 75.0 mg/kg/injection, schedule: Q04DX002 (ip), vehicle: saline with Tween-80): 106 % of control
T/C (dose: 150.0 mg/kg/injection, schedule: Q04DX002 (ip), vehicle: saline with Tween-80): 98 % of control
T/C (dose: 300.0 mg/kg/injection, schedule: Q04DX002 (ip), vehicle: saline with Tween-80): 109 % of control

Oc1ccc(O)c(CCCCCc2cc(O)ccc2O)c1
T/C (dose: 25.0 mg/kg/injection, schedule: Q01DX009 (ip), vehicle: other): 106 % of control
T/C (dose: 50.0 mg/kg/injection, schedule: Q01DX009 (ip), vehicle: other): 98 % of control
T/C (dose: 100.0 mg/kg/injection, schedule: Q01DX001 (ip), vehicle: saline with Tween-80): 104 % of control
T/C (dose: 100.0 mg/kg/injection, schedule: Q01DX009 (ip), vehicle: other): 97 % of control
T/C (dose: 200.0 mg/kg/injection, schedule: Q01DX001 (ip), vehicle: saline with Tween-80): 100 % of control
T/C (dose: 400.0 mg/kg/injection, schedule: Q01DX001 (ip), vehicle: saline with Tween-80): 100 % of control

Nc1ccc(-c2ccc(N)c(Oc3ccccc3)c2)cc1Oc1ccccc1
T/C (dose: 100.0 mg/kg/injection, schedule: Q01DX001 (ip), vehicle: other): 92 % of control
T/C (dose: 200.0 mg/kg/injection, schedule: Q01DX001 (ip), vehicle: other): 97 % of control
T/C (dose: 400.0 mg/kg/injection, schedule: Q01DX001 (ip), vehicle: other): 94 % of control

C=C(C)C1C=CC(O)=C2C(=O)CCC(C)C21C (stereo not given)
T/C (dose: 25.0 mg/kg/injection, schedule: Q04DX003 (ip), vehicle: saline): 100 % of control
T/C [1]: 100 % of control
T/C [2]: 100 % of control

CCCCC(CC)CN(CC(CC)CCCC)c1nc(Cl)nc(N(CC(CC)CCCC)CC(CC)CCCC)n1 (stereo not given)
T/C (dose: 25.6 mg/kg/injection, schedule: Q04DX002 (ip), vehicle: saline with Tween-80): 91 % of control
T/C (dose: 64.0 mg/kg/injection, schedule: Q04DX002 (ip), vehicle: saline with Tween-80): 97 % of control
T/C (dose: 100.0 mg/kg/injection, schedule: Q04DX003 (ip), vehicle: saline with Tween-80): 92 % of control
T/C (dose: 160.0 mg/kg/injection, schedule: Q04DX002 (ip), vehicle: saline with Tween-80): 91 % of control
T/C (dose: 200.0 mg/kg/injection, schedule: Q04DX003 (ip), vehicle: saline with Tween-80): 94 % of control
T/C (dose: 400.0 mg/kg/injection, schedule: Q04DX002 (ip), vehicle: saline with Tween-80): 91 % of control
T/C (dose: 400.0 mg/kg/injection, schedule: Q04DX003 (ip), vehicle: saline with Tween-80): 92 % of control

ClCC1COC(CCl)O1 (stereo not given)
T/C (dose: 55.0 mg/kg/injection, schedule: Q01DX Z (ip), vehicle: saline): 101 % of control
T/C (dose: 83.0 mg/kg/injection, schedule: Q01DX Z (ip), vehicle: saline): 95 % of control
T/C (dose: 125.0 mg/kg/injection, schedule: Q01DX Z (ip), vehicle: saline): 97 % of control

O=NN(CCCl)C(=O)NC1CCC(CC(=O)O)CC1 (stereo not given)
T/C (dose: 3.5 mg/kg/injection, schedule: Q01DX001 (ip), vehicle: Klucel (hydroxypropylcellulose) (HPC)): 114 % of control
T/C (dose: 5.3 mg/kg/injection, schedule: Q01DX001 (ip), vehicle: Klucel (hydroxypropylcellulose) (HPC)): 171 % of control
T/C (dose: 12.0 mg/kg/injection, schedule: Q01DX001 (ip), vehicle: Klucel (hydroxypropylcellulose) (HPC)): 235 % of control and 536 % of control
T/C (dose: 15.0 mg/kg/injection, schedule: Q01DX001 (ip), vehicle: carboxymethylcellulose (CMC)): 151 % of control and 178 % of control
T/C (dose: 18.0 mg/kg/injection, schedule: Q01DX001 (ip), vehicle: Klucel (hydroxypropylcellulose) (HPC)): 352 % of control and 377 % of control
T/C (dose: 18.0 mg/kg/injection, schedule: Q01DX001 (ip), vehicle: carboxymethylcellulose (CMC)): 403 % of control
T/C (dose: 23.0 mg/kg/injection, schedule: Q01DX001 (ip), vehicle: carboxymethylcellulose (CMC)): 336 % of control and 351 % of control
T/C (dose: 26.0 mg/kg/injection, schedule: Q01DX001 (ip), vehicle: Klucel (hydroxypropylcellulose) (HPC)): 352 % of control and 439 % of control
T/C (dose: 26.0 mg/kg/injection, schedule: Q01DX001 (ip), vehicle: carboxymethylcellulose (CMC)): 454 % of control
T/C (dose: 34.0 mg/kg/injection, schedule: Q01DX001 (ip), vehicle: carboxymethylcellulose (CMC)): 445 % of control and 454 % of control
T/C (dose: 40.0 mg/kg/injection, schedule: Q01DX001 (ip), vehicle: Klucel (hydroxypropylcellulose) (HPC)): 319 % of control and 381 % of control
T/C (dose: 40.0 mg/kg/injection, schedule: Q01DX001 (ip), vehicle: carboxymethylcellulose (CMC)): 418 % of control
T/C (dose: 51.0 mg/kg/injection, schedule: Q01DX001 (ip), vehicle: carboxymethylcellulose (CMC)): 413 % of control and 476 % of control
T/C (dose: 60.0 mg/kg/injection, schedule: Q01DX001 (ip), vehicle: Klucel (hydroxypropylcellulose) (HPC)): 111 % of control and 202 % of control
T/C (dose: 60.0 mg/kg/injection, schedule: Q01DX001 (ip), vehicle: carboxymethylcellulose (CMC)): 102 % of control
T/C (dose: 77.0 mg/kg/injection, schedule: Q01DX001 (ip), vehicle: carboxymethylcellulose (CMC)): 175 % of control and 258 % of control

CCCNC(C)CC(=O)OCC (stereo not given)
T/C (dose: 100.0 mg/kg/injection, schedule: Q01DX Z (ip), vehicle: methylcellulose (MC)): 96 % of control
T/C (dose: 200.0 mg/kg/injection, schedule: Q01DX Z (ip), vehicle: methylcellulose (MC)): 94 % of control

CCCCC(=O)N/N=C/c1ccccc1OC
T/C (dose: 100.0 mg/kg/injection, schedule: Q01DX001 (ip), vehicle: saline): 102 % of control
T/C (dose: 200.0 mg/kg/injection, schedule: Q01DX001 (ip), vehicle: saline): 104 % of control

NC(=O)C(c1ccccc1)N1CCOCC1 (stereo not given)
T/C [1]: 106 % of control
T/C [2]: 102 % of control
T/C (dose: 200.0 mg/kg/injection, schedule: Q04DX003 (ip), vehicle: saline): 104 % of control
T/C (dose: 400.0 mg/kg/injection, schedule: Q04DX003 (ip), vehicle: saline): 102 % of control

O=C(COc1cc(Cl)c(Cl)cc1Cl)Nc1ccc(-c2ccccc2)cc1
T/C (dose: 75.0 mg/kg/injection, schedule: Q04DX002 (ip), vehicle: Klucel (hydroxypropylcellulose) (HPC)): 95 % of control
T/C (dose: 150.0 mg/kg/injection, schedule: Q04DX002 (ip), vehicle: Klucel (hydroxypropylcellulose) (HPC)): 103 % of control
T/C (dose: 300.0 mg/kg/injection, schedule: Q04DX002 (ip), vehicle: Klucel (hydroxypropylcellulose) (HPC)): 98 % of control

O=C(C=C(C(F)(F)F)C(F)(F)F)c1ccco1
T/C (dose: 12.5 mg/kg/injection, schedule: Q01DX009 (ip), vehicle: saline with Tween-80): 100 % of control
T/C (dose: 25.0 mg/kg/injection, schedule: Q01DX009 (ip), vehicle: saline with Tween-80): 104 % of control

CCc1nnnn1-c1ccc(Br)cc1
T/C (dose: 100.0 mg/kg/injection, schedule: Q01DX001 (ip), vehicle: Klucel (hydroxypropylcellulose) (HPC)): 93 % of control
T/C (dose: 200.0 mg/kg/injection, schedule: Q01DX001 (ip), vehicle: Klucel (hydroxypropylcellulose) (HPC)): 102 % of control
T/C (dose: 400.0 mg/kg/injection, schedule: Q01DX001 (ip), vehicle: Klucel (hydroxypropylcellulose) (HPC)): 116 % of control

O=C(O)C12C3CCC(O3)C1(C(=O)O)C1CCC2O1 (stereo not given)
T/C (dose: 100.0 mg/kg/injection, schedule: Q04DX002 (ip), vehicle: Klucel (hydroxypropylcellulose) (HPC)): 104 % of control
T/C (dose: 200.0 mg/kg/injection, schedule: Q04DX002 (ip), vehicle: Klucel (hydroxypropylcellulose) (HPC)): 104 % of control
T/C (dose: 400.0 mg/kg/injection, schedule: Q04DX002 (ip), vehicle: Klucel (hydroxypropylcellulose) (HPC)): 104 % of control

N#CCC(=O)c1ccccc1
T/C (dose: 12.5 mg/kg/injection, schedule: Q01DX009 (ip), vehicle: Klucel (hydroxypropylcellulose) (HPC)): 113 % of control
T/C (dose: 18.75 mg/kg/injection, schedule: Q04DX003 (ip), vehicle: gum acacia): 106 % of control
T/C (dose: 25.0 mg/kg/injection, schedule: Q01DX009 (ip), vehicle: Klucel (hydroxypropylcellulose) (HPC)): 102 % of control
T/C (dose: 37.5 mg/kg/injection, schedule: Q04DX003 (ip), vehicle: gum acacia): 108 % of control
T/C (dose: 50.0 mg/kg/injection, schedule: Q01DX009 (ip), vehicle: Klucel (hydroxypropylcellulose) (HPC)): 104 % of control
